Experimental data as given in paper PMC3743849, “A Yeast-Based Chemical Screen Identifies a PDE Inhibitor That Elevates Steroidogenesis in Mouse Leydig Cells via PDE8 and PDE4 Inhibition” (PLoS ONE, 2013).

Tests used:
PDE8 enzymes = test system: PDE8 enzymes; design: method as in PMID 9671792, PMID 9784418; settings: ref [6], [11]; cited from earlier work
recombinant human PDE8A = molecular target: T1, recombinant human PDE8A (Homo sapiens, UniProt O60658); assay: In vitro PDE assay (Ba(OH)2 precipitation), PDE8A; assay type: biochemical; settings: for IC50: 10 nM cAMP substrate
T1 construct: purchased BPS Bioscience Inc
Protocol: (§1) In vitro PDE assays were performed as previously described, using the Ba(OH)2 precipitation assay, with recombinant human PDE1C, PDE3B, PDE5A1, PDE8A, PDE9A2, PDE10A1, PDE11A4 (BPS Bioscience Inc.), rat PDE2A (BPS Bioscience Inc.), human PDE7A (BIOMOL International), and human PDE4A10 enzymes (gift from Dr. Hengming Ke). Substrate concentrations were 120 nM cGMP (PDE1C), 1 µM cGMP (PDE2A), 30 nM cGMP (PDE3B), 50 nM cAMP (PDE4A), 520 nM cGMP (PDE5A), 10 nM cAMP (PDE7A), 10 nM cAMP (PDE8A), 70 nM cGMP (PDE9A), 40 nM cAMP (PDE10A), and 120 nM cGMP (PDE11A). Reactions were performed in 50 mM Tris·HCl (pH 8.5), 10 mM MgCl2 (for all enzymes except PDE8) or 4 mM MnCl2 (for PDE8A), and 5 mM dithiothreitol, and proceeded for 30 min for PDE8A, 6 min for PDE10A and 15 min for other PDEs, so that reactions were linear with time. Reactions were stopped with 200 µL 0.2 M ZnSO4, after which 5′-AMP was precipitated with 200 µL 0.25 N Ba(OH)2 by centrifugation for 15 min at 14000 rpm. The remaining radioactivity in the supernatant was measured in 4 mL of scintillation fluid. The amount of hydrolysis was generally limited to 30 percent conversion and IC50 values were calculated as the means of three independent experiments. Substrate concentrations were ≤0.1*Km for each enzyme, thus IC50 values approximate the Ki values.

human PDE4A10 = molecular target: T2, human PDE4A10 (Homo sapiens, UniProt P27815); assay: In vitro PDE assay (Ba(OH)2 precipitation), PDE4A; assay type: biochemical; settings: 50 nM cAMP substrate
T2 construct: gift from Dr. Hengming Ke

human PDE7A = molecular target: T3, human PDE7A (Homo sapiens, UniProt Q13946); assay: In vitro PDE assay (Ba(OH)2 precipitation), PDE7A; assay type: biochemical; settings: for IC50: 10 nM cAMP substrate, mean ± SD of three independent experiments
T3 construct: purchased BIOMOL International

recombinant human PDE1C = molecular target: T4, recombinant human PDE1C (Homo sapiens, UniProt Q14123); assay: In vitro PDE assay (Ba(OH)2 precipitation), PDE1C; assay type: biochemical; settings: 120 nM cGMP substrate; mean ± SD of three independent experiments
T4 construct: purchased BPS Bioscience Inc
Protocol: as §1

rat PDE2A = molecular target: T5, rat PDE2A (Rattus norvegicus, UniProt Q01062); assay: In vitro PDE assay (Ba(OH)2 precipitation), PDE2A; assay type: biochemical; settings: 1 µM cGMP substrate; mean ± SD of three independent experiments
T5 construct: purchased BPS Bioscience Inc
T5 sequence (Q01062 1-928): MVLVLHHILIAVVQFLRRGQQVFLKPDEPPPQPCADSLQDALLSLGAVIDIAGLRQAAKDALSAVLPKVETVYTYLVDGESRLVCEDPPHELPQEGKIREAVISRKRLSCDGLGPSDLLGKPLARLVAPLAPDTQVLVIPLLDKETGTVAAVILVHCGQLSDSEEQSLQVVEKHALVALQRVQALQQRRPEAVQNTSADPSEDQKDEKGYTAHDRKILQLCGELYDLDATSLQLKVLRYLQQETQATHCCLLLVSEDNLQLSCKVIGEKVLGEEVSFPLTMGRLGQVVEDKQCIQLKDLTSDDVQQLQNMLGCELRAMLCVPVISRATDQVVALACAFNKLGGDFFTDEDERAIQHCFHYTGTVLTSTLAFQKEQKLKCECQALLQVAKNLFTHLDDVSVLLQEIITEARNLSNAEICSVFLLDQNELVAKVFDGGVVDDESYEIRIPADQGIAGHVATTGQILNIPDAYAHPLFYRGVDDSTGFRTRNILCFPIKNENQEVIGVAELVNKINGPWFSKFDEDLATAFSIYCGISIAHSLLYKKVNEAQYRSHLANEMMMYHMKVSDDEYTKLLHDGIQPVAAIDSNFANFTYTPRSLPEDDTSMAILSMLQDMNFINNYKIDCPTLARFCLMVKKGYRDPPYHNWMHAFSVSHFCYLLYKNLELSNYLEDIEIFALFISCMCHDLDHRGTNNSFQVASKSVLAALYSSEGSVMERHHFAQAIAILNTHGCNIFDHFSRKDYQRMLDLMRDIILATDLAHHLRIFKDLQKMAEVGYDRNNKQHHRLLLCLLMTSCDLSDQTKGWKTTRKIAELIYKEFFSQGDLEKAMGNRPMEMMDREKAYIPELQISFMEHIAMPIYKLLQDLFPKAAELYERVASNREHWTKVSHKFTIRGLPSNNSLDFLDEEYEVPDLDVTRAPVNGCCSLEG
Protocol: as §1

recombinant human PDE3B = molecular target: T6, recombinant human PDE3B (Homo sapiens, UniProt Q13370); assay: In vitro PDE assay (Ba(OH)2 precipitation), PDE3B; assay type: biochemical; settings: 30 nM cGMP substrate; three independent experiments
T6 construct: purchased BPS Bioscience Inc
Protocol: as §1

[1] = molecular target: T7, recombinant human PDE10A1 (Homo sapiens, UniProt Q9Y233); assay: In vitro PDE assay (Ba(OH)2 precipitation), PDE10A; assay type: biochemical; settings: 40 nM cAMP substrate; mean ± SD of three independent experiments
T7 construct: purchased BPS Bioscience Inc
Protocol: as §1

[2] = molecular target: T8, recombinant human PDE11A4 (Homo sapiens, UniProt Q9HCR9); assay: In vitro PDE assay (Ba(OH)2 precipitation), PDE11A; assay type: biochemical; settings: 120 nM cGMP substrate; mean ± SD of three independent experiments
T8 construct: purchased BPS Bioscience Inc
Protocol: as §1

recombinant human PDE5A1 = molecular target: T9, recombinant human PDE5A1 (Homo sapiens, UniProt O76074); assay: In vitro PDE assay (Ba(OH)2 precipitation), PDE5A; assay type: biochemical; settings: 520 nM cGMP substrate; mean ± SD of three independent experiments
T9 construct: purchased BPS Bioscience Inc
Protocol: as §1

recombinant human PDE9A2 = molecular target: T10, recombinant human PDE9A2 (Homo sapiens, UniProt O76083); assay: In vitro PDE assay (Ba(OH)2 precipitation), PDE9A; assay type: biochemical; settings: 70 nM cGMP substrate; three independent experiments
T10 construct: purchased BPS Bioscience Inc
Protocol: as §1

MA-10 Leydig tumor cells = assay: Progesterone release from MA-10 Leydig tumor cells; assay type: cell-based, mouse; settings: 20 µM compound; 2 h
Protocol: MA-10 Leydig tumor cells were maintained in RPMI medium supplemented with 10% horse serum and seeded in 24 well plates to achieve 60–80% confluency after 2–3 days. Cells were washed with serum free medium twice and incubated in a 5% CO2 incubator at 37°C for 2 h. Following incubation, cells were treated with BC8-15, BC8-15A, or BC8-15C by replacing the media with 300 µL RPMI medium containing test compounds or vehicle. Media were collected after incubation for 2 h at 37°C. Progesterone levels in the media were measured using a progesterone ELISA kit (Neogen, Lexington, KY). Protein levels were determined by lysing cells in lysis buffer (50 mM Tris HCl (pH 7.5), 150 mM NaCl, 1% Triton X-100, 2 mM PMSF (supplemented with a Complete Protease Inhibitor Tablet (Roche, Nutley, NJ)) and measuring the protein concentration using a BCA protein assay kit (Pierce, Rockford, IL).

[3] = test system: primary Leydig cells from wild type mice; assay: Testosterone production from primary Leydig cells, wild type mice; assay type: cell-based, mouse; settings: 3 h, rolipram 20 µM, BC8-15 10 µM and 40 µM
Protocol: (§2) Leydig cells were isolated from testes of wild type and PDE8A^−/−/B^−/− knock-out adult mice as previously described. Digested tissue from decapsulated mouse testis was enriched for interstitial cells by filtration as previously described. Collected cells were resuspended in DMEM/F-12 medium supplemented with 1 mg/mL BSA and 150 µL aliquots were dispensed into 48-well plates. After permitting cells to recover at 37°C for 3 h, 30 µL of media with test compounds or vehicle was added to replicate wells. Media were collected after incubation for 3 h and stored at −20°C. Testosterone released into the media was measured by a testosterone ELISA kit (Neogen, Lexington, KY).

[4] = test system: primary Leydig cells from PDE8A−/−/B−/− knock-out mice; assay: Testosterone production from primary Leydig cells, PDE8A-/-/B-/- knock-out mice; assay type: cell-based, mouse; settings: 3 h, rolipram 20 µM, BC8-15 10 µM and 40 µM
Protocol: as §2

murine PDE8A1 = test system: T11, murine PDE8A1; assay: Yeast-based 5FOA growth HTS with PDE8A-expressing S. pombe strain CHP1204; assay type: cell-based; settings: Known Bioactives Collection screen
T11 construct: expressed in transfected cells; host or cells: Schizosaccharomyces pombe strain CHP1204 (PDE8A1 integrated at the cgs2 locus)
Protocol: Cyclic nucleotide-dependent growth in 5FOA medium was monitored in 50 µL cultures in 384-well microtiter plates (untreated, flat clear bottom). Cells were inoculated at an initial cell density of 0.5–2×10^5 cells/mL. Previously described optimized pre-growth conditions for each strain were used to repress the fbp1-ura4^+ reporter prior to inoculation into 5FOA medium, as cells that are already expressing the Ura4 enzyme would be 5FOA-sensitive even upon exposure to a PDE inhibitor [18]. Following a 48-h incubation at 30°C, plates were vortexed and optical densities (600 nm) were measured. The experiments with the PDE8A-expressing strain (CHP1204) were performed with 0.5 mM cAMP in the pre-growth medium and 40 µM cAMP in the 5FOA medium. […]
The suitability and quality of the assay conditions for high throughput screening was evaluated by a Z factor test as previously described, [23], using DMSO (0.2%) as a negative control, and either 5 mM cAMP, 10 µM BC69, or 20 µM BC69 as positive controls. […] After 48 h growth at 30°C, the optical density (OD600) of each well was measured using a plate reader. Composite Z scores were calculated for each compound by scaling the vector [Zscore_A, Zscore_B] by the cosine correlation with the diagonal (i.e. identical Z-scores in both replicates).

[5] = mean ± SD of three independent experiments

T4 sequence (Q14123 whole entry): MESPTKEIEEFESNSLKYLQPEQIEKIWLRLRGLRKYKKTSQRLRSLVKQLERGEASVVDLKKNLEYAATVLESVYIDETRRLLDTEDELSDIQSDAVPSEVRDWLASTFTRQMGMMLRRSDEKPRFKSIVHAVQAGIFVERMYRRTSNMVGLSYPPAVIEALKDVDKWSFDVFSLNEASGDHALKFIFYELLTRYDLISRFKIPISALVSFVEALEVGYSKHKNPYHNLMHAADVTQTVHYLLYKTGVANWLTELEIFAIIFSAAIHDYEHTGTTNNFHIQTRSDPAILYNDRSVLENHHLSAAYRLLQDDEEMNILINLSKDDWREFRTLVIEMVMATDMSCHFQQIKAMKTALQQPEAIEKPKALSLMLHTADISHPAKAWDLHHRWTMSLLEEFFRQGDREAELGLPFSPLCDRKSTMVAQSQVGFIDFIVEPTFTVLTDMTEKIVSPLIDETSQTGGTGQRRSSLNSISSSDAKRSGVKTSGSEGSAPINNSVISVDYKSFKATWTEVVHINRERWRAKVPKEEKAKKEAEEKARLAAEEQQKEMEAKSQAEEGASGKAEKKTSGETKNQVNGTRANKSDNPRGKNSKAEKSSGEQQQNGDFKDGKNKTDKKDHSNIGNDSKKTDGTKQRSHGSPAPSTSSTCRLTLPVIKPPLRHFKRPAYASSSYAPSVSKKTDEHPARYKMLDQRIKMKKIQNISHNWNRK
T8 sequence (Q9HCR9 whole entry): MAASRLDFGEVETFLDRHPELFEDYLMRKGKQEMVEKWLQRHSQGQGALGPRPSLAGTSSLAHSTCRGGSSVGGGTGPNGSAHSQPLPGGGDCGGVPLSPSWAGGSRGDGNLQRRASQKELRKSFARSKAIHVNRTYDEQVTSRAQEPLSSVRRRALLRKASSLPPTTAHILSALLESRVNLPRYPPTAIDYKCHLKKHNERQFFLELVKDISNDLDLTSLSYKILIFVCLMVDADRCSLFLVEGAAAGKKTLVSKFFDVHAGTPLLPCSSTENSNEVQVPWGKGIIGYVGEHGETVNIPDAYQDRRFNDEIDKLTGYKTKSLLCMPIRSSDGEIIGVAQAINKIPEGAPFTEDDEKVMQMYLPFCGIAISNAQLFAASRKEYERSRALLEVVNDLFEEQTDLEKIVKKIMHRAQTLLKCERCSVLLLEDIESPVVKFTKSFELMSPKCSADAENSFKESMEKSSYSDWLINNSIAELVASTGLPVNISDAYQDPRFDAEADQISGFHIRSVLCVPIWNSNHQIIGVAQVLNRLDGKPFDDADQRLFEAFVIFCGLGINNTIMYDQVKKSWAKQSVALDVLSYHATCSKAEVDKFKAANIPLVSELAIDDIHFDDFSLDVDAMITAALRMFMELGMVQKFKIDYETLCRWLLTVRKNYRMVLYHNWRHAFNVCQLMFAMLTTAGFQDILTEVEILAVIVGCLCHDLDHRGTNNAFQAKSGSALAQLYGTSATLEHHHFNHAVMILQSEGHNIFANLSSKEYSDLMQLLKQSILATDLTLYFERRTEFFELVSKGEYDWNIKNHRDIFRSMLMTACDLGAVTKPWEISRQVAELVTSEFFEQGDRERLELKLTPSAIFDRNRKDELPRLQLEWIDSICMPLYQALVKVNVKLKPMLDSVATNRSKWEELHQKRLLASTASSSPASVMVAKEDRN
T7 sequence (Q9Y233 1-779 isoform Q9Y233-1): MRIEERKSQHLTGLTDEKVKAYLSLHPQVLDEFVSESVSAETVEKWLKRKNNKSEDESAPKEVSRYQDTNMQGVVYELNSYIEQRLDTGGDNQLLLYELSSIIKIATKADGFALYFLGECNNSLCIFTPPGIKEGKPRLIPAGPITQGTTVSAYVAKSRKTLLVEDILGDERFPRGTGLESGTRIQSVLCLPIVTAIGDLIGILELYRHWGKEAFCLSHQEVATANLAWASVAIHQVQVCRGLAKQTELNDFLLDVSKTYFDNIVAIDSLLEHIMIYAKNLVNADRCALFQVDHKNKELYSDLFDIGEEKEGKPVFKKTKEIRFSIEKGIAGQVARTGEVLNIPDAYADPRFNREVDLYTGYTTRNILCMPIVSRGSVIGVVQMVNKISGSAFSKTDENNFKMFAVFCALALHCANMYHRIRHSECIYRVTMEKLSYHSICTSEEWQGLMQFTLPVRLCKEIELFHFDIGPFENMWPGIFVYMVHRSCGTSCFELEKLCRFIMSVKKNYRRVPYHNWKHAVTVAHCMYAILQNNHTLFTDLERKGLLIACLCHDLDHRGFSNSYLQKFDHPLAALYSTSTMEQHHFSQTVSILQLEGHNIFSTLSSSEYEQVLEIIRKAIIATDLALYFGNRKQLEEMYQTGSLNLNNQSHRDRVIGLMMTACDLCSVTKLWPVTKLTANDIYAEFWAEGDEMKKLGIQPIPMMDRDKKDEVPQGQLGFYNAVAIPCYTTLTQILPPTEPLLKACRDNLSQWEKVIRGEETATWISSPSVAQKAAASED
T1 sequence (O60658 whole entry): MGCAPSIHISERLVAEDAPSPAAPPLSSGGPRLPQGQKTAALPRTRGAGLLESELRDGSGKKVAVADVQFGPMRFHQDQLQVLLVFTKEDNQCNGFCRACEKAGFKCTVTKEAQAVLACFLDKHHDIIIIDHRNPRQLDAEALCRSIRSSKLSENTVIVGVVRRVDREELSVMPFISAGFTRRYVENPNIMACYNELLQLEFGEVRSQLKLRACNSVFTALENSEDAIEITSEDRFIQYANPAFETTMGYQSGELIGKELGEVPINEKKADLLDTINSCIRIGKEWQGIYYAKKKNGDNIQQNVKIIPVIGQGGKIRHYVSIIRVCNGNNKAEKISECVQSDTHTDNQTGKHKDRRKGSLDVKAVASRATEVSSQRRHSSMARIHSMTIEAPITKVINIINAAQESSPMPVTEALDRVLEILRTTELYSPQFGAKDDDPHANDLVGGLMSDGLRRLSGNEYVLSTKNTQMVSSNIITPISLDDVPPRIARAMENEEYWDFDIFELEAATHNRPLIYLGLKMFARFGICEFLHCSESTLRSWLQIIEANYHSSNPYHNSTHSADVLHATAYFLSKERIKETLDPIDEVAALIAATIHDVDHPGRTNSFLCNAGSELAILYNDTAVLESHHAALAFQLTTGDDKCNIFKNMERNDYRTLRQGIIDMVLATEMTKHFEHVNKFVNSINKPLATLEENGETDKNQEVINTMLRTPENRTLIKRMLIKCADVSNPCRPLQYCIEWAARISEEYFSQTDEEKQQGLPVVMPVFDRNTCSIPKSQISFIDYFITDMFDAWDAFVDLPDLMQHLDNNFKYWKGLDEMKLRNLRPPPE
T10 sequence (O76083 1-533 isoform O76083-2): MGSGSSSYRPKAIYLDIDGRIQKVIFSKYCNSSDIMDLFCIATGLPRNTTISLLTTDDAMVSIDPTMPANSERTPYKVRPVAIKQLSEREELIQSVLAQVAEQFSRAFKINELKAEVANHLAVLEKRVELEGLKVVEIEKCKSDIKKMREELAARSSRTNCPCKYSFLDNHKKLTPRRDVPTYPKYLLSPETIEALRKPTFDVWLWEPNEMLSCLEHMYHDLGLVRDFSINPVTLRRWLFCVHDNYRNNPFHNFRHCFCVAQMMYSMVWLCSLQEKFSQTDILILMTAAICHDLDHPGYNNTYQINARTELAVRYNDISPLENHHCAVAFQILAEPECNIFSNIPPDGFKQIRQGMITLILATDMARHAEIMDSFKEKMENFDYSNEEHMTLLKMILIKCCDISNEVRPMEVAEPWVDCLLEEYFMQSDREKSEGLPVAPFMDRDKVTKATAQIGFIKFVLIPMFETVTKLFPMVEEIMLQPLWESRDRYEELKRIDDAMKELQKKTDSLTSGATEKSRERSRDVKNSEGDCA
T6 sequence (Q13370 whole entry): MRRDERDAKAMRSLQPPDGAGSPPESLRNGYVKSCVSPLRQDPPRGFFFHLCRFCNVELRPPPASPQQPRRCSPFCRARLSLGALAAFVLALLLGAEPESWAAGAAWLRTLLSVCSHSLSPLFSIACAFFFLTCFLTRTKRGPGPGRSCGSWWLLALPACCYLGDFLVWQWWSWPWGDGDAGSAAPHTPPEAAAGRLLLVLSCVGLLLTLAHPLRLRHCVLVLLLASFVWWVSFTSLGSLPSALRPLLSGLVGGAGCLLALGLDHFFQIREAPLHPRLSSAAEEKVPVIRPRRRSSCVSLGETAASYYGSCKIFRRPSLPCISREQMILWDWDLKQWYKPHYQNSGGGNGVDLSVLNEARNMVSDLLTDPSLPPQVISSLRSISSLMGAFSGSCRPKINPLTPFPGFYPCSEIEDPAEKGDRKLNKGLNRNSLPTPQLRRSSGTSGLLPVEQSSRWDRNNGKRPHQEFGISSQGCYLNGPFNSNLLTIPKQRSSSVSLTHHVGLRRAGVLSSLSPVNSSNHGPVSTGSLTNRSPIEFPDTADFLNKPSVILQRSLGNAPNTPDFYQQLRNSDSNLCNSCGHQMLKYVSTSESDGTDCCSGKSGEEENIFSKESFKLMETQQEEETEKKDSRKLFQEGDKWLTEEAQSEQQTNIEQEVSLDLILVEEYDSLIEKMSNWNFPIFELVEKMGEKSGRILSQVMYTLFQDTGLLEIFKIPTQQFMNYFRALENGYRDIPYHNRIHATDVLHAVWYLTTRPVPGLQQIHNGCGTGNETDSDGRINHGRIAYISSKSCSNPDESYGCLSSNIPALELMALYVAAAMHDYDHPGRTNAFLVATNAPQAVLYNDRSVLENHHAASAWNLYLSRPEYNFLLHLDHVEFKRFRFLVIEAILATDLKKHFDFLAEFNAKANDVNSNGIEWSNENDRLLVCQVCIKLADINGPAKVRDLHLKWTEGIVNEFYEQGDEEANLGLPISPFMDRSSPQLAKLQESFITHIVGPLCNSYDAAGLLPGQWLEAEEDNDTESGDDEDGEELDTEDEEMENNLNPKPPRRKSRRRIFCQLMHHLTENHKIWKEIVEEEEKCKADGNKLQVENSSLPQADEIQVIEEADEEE

SMILES: CC(C)Cn1c(=O)n(C)c(=O)c2[nH]cnc21 [3-isobutyl-1-methylxanthine (IBMX), 3-isobutyl-1-methylxanthine]
- sensitivity of PDE8 enzymes to inhibitor (PDE8 enzymes): insensitive

SMILES: Cc1nnc2c3ccccc3nc(Nc3cccc(C(=O)O)c3)n12 [BC8-15A]
- IC50 (recombinant human PDE8A; [5]): 1.59 ± 0.3 µM
- IC50 (human PDE4A10; [5]): 1.59 ± 0.1 µM
- IC50 (human PDE7A): 8.88 ± 3.9 µM
- IC50 (recombinant human PDE1C): > 20 µM
- IC50 (rat PDE2A): 5.2 ± 2 µM
- IC50 (recombinant human PDE3B): > 20 µM
- IC50 [1]: 2.3 ± 0.7 µM
- IC50 [2]: 1 µM
- IC50 (recombinant human PDE5A1): > 20 µM
- IC50 (recombinant human PDE9A2): > 20 µM
- increase in progesterone release compared to untreated cells (MA-10 Leydig tumor cells): five-fold

SMILES: CCc1nnc2c3ccccc3nc(Nc3cccc(C)c3)n12 [BC8-15C]
- IC50 (recombinant human PDE8A; [5]): 59.3 ± 14.2 µM
- IC50 (human PDE7A): 14.2 ± 6.4 µM
- IC50 (recombinant human PDE1C): > 20 µM
- IC50 (rat PDE2A): > 20 µM
- IC50 (recombinant human PDE3B): > 20 µM
- IC50 [1]: 1.5 ± 1.2 µM
- IC50 [2]: 0.08 ± 0.05 µM
- IC50 (recombinant human PDE5A1): > 20 µM
- IC50 (recombinant human PDE9A2): > 20 µM
- increase in progesterone release compared to untreated cells (MA-10 Leydig tumor cells): little or no effect

SMILES: CCc1nnc2c3ccccc3nc(Nc3cccc(C(=O)O)c3)n12 [BC8-15]
- IC50 (recombinant human PDE8A): 0.28 µM
- IC50 (human PDE4A10): 0.22 µM
- IC50 (human PDE7A): 6.46 µM
- fold less activity against PDE7A (vs PDE8A/PDE4A) (human PDE7A; ratio of IC50 values): 23 fold
- IC50 (recombinant human PDE1C): 8.4 ± 3 µM
- IC50 (rat PDE2A): 15.7 ± 2.7 µM
- IC50 (recombinant human PDE3B): > 20 µM
- IC50 [1]: 1.6 ± 0.2 µM
- IC50 [2]: 1.2 ± 0.7 µM
- IC50 (recombinant human PDE5A1): 16.7 ± 2.3 µM
- IC50 (recombinant human PDE9A2): > 20 µM
- testosterone release [3]: dose-dependent elevation
- increase in testosterone production [4]: two-fold increase
- increase in progesterone release compared to untreated cells (MA-10 Leydig tumor cells): > 10 fold

SMILES: OCCN(CCO)c1nc(N2CCCCC2)c2nc(N(CCO)CCO)nc(N3CCCCC3)c2n1 [dipyridamole]
- activity in PDE8A yeast growth screen (murine PDE8A1): no activity
- sensitivity of PDE8 enzymes to inhibitor (PDE8 enzymes): only weakly inhibited

SMILES: C[C@]12CC[C@H](O)C[C@@H]1CC[C@@H]1[C@@H]2CC[C@]2(C)C(=O)CC[C@@H]12 [epiandrosterone, reference compound]
- inhibition at 32 µM (recombinant human PDE8A; 32 µM compound, data not shown): 17%
- composite Z score, 5FOA-resistant growth of PDE8A1-expressing strain (murine PDE8A1; 40 µM cAMP in 5FOA medium, 48 h): 12.9

SMILES: COc1ccc(C2CNC(=O)C2)cc1OC1CCCC1 (stereo not shown) [rolipram, reference compound]
- testosterone release [3]: no response
- increase in testosterone production [4]: two-fold increase
- increase in progesterone release compared to untreated cells (MA-10 Leydig tumor cells): little or no effect
